The text below walks through data of patent US10687525B2, “Enhancement of cell cryopreservation with glycolipids” (TISSUE TESTING TECHNOLOGIES LLC, priority 2016, dated 2020).

This test relates to keratinocytes. Briefly: Cell viability of keratinocytes after cryopreservation in 10% DMSO in RPMI (alamarBlue). Type of test: cell-based. To be noted: keratinocytes cryopreserved in vials or culture plates in 10% DMSO in RPMI. On the procedure:
In the results discussed below, measurement of Cell Viability and Proliferation in FIGS. 1-4 employed AlamarBlue™ by measuring the oxidation/reduction reactions that take place within cells. AlamarBlue™ was added directly to the plates containing cultured cells in culture medium and incubated for 3 hours at 37° C. Upon reduction, AlamarBlue™ changes color and this color change can be measured and quantified. The culture plates were read using a Gemini EM fluorescent microplate reader ([…]) at an excitation wavelength of 544 nm and an emission wavelength of 590 nm. […] Keratinocytes were cryopreserved in vials or in culture plates in 10% DMSO in RPMI. Metabolic activity was measured immediately after thawing and for several days post thaw. Cell viability (in percent of untreated controls) was calculated as the mean (±SEM) of 120 replicates.

As to `C[S+](C)[O-]` [DMSO, dimethyl sulfoxide], the “cell yields after cryopreservation (cell viability in percent of untreated controls)” value was “below 50%”.
